From article PMC10866072, “Design, synthesis, molecular modelling and biological evaluation of novel 6-amino-5-cyano-2-thiopyrimidine derivatives as potent anticancer agents against leukemia and apoptotic inducers” (Journal of Enzyme Inhibition and Medicinal Chemistry, 2024)

How the values were obtained:
[1] = system: HCT-116; type: cell-based; settings: Homo sapiens, one dose 10^-5 M, 48 h, read-out: % growth
[2] = system: OVCAR-5; type: cell-based; settings: Homo sapiens, one dose 10^-5 M, 48 h
[3] = system: HL-60(TB); type: cell-based; settings: Homo sapiens, one dose 10^-5 M, 48 h
[4] = system: NCI-H522; type: cell-based; settings: Homo sapiens, one dose 10^-5 M, 48 h
[5] = system: T-47D; type: cell-based; settings: Homo sapiens, T47D, one dose 10^-5 M, 48 h, read-out: % growth
[6] = system: OVCAR-3; type: cell-based; settings: Homo sapiens, one dose 10^-5 M, 48 h
[7] = system: RPMI-8226; type: cell-based; settings: Homo sapiens, one dose 10^-5 M, 48 h
[8] = system: SK-MEL-28; type: cell-based; settings: Homo sapiens, one dose 10^-5 M, 48 h
[9] = system: HT29; type: cell-based; settings: Homo sapiens, HT-29, one dose 10^-5 M, 48 h
[10] = system: UO-31; type: cell-based; settings: Homo sapiens, UO-31, 48 h, one dose 10^-5 M, 48 h
[11] = system: MDA-MB-231/ATCC; type: cell-based; settings: Homo sapiens, one dose 10^-5 M, 48 h
[12] = system: COLO 205; type: cell-based; settings: Homo sapiens, one dose 10^-5 M, 48 h
[13] = system: SNB-19; type: cell-based; settings: Homo sapiens, one dose 10^-5 M, 48 h, read-out: % growth
[14] = system: full NCI 60 cell lines panel; settings: for activity at 10 µM: Homo sapiens, 60 cell, read-out: Mean % growth; for activity on all 60 cancer cell lines tested (in words): one dose
[15] = system: MOLT-4; type: cell-based; settings: Homo sapiens, one dose 10^-5 M, 48 h, read-out: % growth
[16] = system: HS 578T; type: cell-based; settings: Homo sapiens; one dose 10^-5 M, 48 h; HS 578T; read-out: % growth
[17] = system: HOP-62; type: cell-based; settings: Homo sapiens, one dose 10^-5 M, 48 h
[18] = system: NCI/ADR-RES; type: cell-based; settings: Homo sapiens, one dose 10^-5 M, 48 h
[19] = system: EKVX; type: cell-based; settings: Homo sapiens, one dose 10^-5 M, 48 h
[20] = system: UACC-257; type: cell-based; settings: Homo sapiens, one dose 10^-5 M, 48 h
[21] = system: SK-MEL-2; type: cell-based; settings: Homo sapiens, one dose 10^-5 M, 48 h
[22] = system: OVCAR-4; type: cell-based; settings: Homo sapiens, one dose 10^-5 M, 48 h
[23] = system: LOX IMVI; type: cell-based; settings: Homo sapiens, one dose 10^-5 M, 48 h, read-out: % growth
[24] = system: MDA-MB-468; type: cell-based; settings: Homo sapiens, one dose 10^-5 M, 48 h
[25] = system: SF-295; type: cell-based; settings: Homo sapiens, one dose 10^-5 M, 48 h
[26] = system: TK-10; type: cell-based; settings: Homo sapiens, one dose 10^-5 M, 48 h
[27] = system: HOP-92; type: cell-based; settings: Homo sapiens, one dose 10^-5 M, 48 h
[28] = system: MCF7; type: cell-based; settings: Homo sapiens, one dose 10^-5 M, 48 h, read-out: % growth
[29] = system: HCT-15; type: cell-based; settings: Homo sapiens, one dose 10^-5 M, 48 h, read-out: % growth
[30] = system: SN12C; type: cell-based, human; settings: Homo sapiens, one dose 10^-5 M, 48 h
[31] = system: SR; type: cell-based; settings: Homo sapiens, one dose 10^-5 M, 48 h
[32] = system: KM12; type: cell-based; settings: Homo sapiens, one dose 10^-5 M, 48 h
[33] = system: NCI-H23; type: cell-based; settings: Homo sapiens, one dose 10^-5 M, 48 h, read-out: % growth
[34] = system: PC-3; type: cell-based; settings: Homo sapiens, one dose 10^-5 M, 48 h
[35] = system: 786-0; type: cell-based; settings: Homo sapiens, one dose 10^-5 M, 48 h
[36] = system: BT-549; type: cell-based; settings: Homo sapiens, one dose 10^-5 M, 48 h
[37] = system: SK-MEL-5; type: cell-based; settings: Homo sapiens, one dose 10^-5 M, 48 h, read-out: % growth
[38] = system: CAKI-1; type: cell-based; settings: Homo sapiens, CAKI-1, 48 h, one dose 10^-5 M, 48 h
[39] = system: HCC-2998; type: cell-based; settings: Homo sapiens, one dose 10^-5 M, 48 h
[40] = system: SW-620; type: cell-based; settings: Homo sapiens, one dose 10^-5 M, 48 h
[41] = system: MDA-MB-435; type: cell-based; settings: Homo sapiens, one dose 10^-5 M, 48 h, read-out: % growth
[42] = system: UACC-62; type: cell-based; settings: Homo sapiens, one dose 10^-5 M, 48 h
[43] = system: NCI-H460; type: cell-based; settings: Homo sapiens, one dose 10^-5 M, 48 h, read-out: % growth
[44] = system: CCRF-CEM; type: cell-based; settings: Homo sapiens, one dose 10^-5 M, 48 h
[45] = system: DU-145; type: cell-based; settings: Homo sapiens, one dose 10^-5 M, 48 h
[46] = system: SF-539; type: cell-based; settings: Homo sapiens, one dose 10^-5 M, 48 h
[47] = system: A549/ATCC; type: cell-based; settings: Homo sapiens, one dose 10^-5 M, 48 h
[48] = system: K-562; type: cell-based; settings: Homo sapiens, K562, one dose 10^-5 M, 48 h
[49] = system: M14; type: cell-based; settings: Homo sapiens, one dose 10^-5 M, 48 h
[50] = system: OVCAR-8; type: cell-based; settings: Homo sapiens, one dose 10^-5 M, 48 h
[51] = system: IGROV1; type: cell-based; settings: Homo sapiens, IGROV-1, one dose 10^-5 M, 48 h, read-out: % growth
[52] = system: MALME-3M; type: cell-based; settings: Homo sapiens, one dose 10^-5 M, 48 h
[53] = system: RXF 393; type: cell-based; settings: Homo sapiens, RXF 393, 48 h, one dose 10^-5 M, 48 h, read-out: % growth
[54] = system: NCI-H226; type: cell-based; settings: Homo sapiens, one dose 10^-5 M, 48 h
[55] = system: SK-OV-3; type: cell-based; settings: Homo sapiens, one dose 10^-5 M, 48 h
[56] = system: A498; type: cell-based; settings: Homo sapiens, one dose 10^-5 M, 48 h
[57] = system: ACHN; type: cell-based; settings: Homo sapiens, one dose 10^-5 M, 48 h
[58] = system: U251; type: cell-based; settings: Homo sapiens, U-251, one dose 10^-5 M, 48 h
[59] = system: SF-268; type: cell-based; settings: Homo sapiens, one dose 10^-5 M, 48 h, read-out: % growth

N=C(NN=Cc1ccc(Br)cc1)c1c(N)nc(S)nc1-c1ccc(Cl)cc1Cl [Compound 4q, 4-amino-N'-[(4-bromophenyl)methylene]-6–(2,4-dichlorophenyl)-2-mercapto pyrimidine-5-carboximidohydrazide]
activity at 10 µM [1]: 96.2%
percent cell growth at 10 µM [2]: 119%
% growth at 10 µM [3]: 96.5%
% growth at 10 µM [4]: 101%
activity at 10 µM [5]: 110%
% growth at 10 µM [6]: 104%
% growth at 10 µM [7]: 98.8%
% cell growth at 10 µM [8]: 106%
% growth at 10 µM [9]: 112%
% cell growth at 10 µM [10]: 94.2%
% growth at 10 µM [11]: 98.5%
% growth at 10 µM [12]: 114%
activity at 10 µM [13]: 99.2%
activity at 10 µM ([14]; 48 h): 104%
activity on all 60 cancer cell lines tested (in words) [14]: weak activity
activity at 10 µM [15]: 91.4%
activity at 10 µM [16]: 118%
% growth at 10 µM [17]: 101%
cell growth percent at 10 µM [18]: 114%
% cell growth at 10 µM [19]: 108%
percent cell growth at 10 µM [20]: 102%
% growth at 10 µM [21]: 109%
% growth at 10 µM [22]: 109%
activity at 10 µM [23]: 109%
percent cell growth at 10 µM [24]: 113%
% cell growth at 10 µM [25]: 96.6%
% cell growth at 10 µM [26]: 148%
% growth at 10 µM [27]: 102%
activity at 10 µM [28]: 90.9%
activity at 10 µM [29]: 108%
% growth at 10 µM [30]: 103%
percent cell growth at 10 µM [31]: 86.7%
% growth at 10 µM [32]: 100%
activity at 10 µM [33]: 102%
percent cell growth at 10 µM [34]: 102%
% growth at 10 µM [35]: 93.8%
% cell growth at 10 µM [36]: 97.7%
activity at 10 µM [37]: 104%
% growth at 10 µM [38]: 86.9%
% growth at 10 µM [39]: 114%
% growth at 10 µM [40]: 108%
activity at 10 µM [41]: 104%
% growth at 10 µM [42]: 96.4%
activity at 10 µM [43]: 110%
% cell growth at 10 µM [44]: 96.8%
% growth at 10 µM [45]: 108%
% growth at 10 µM [46]: 102%
% growth at 10 µM [47]: 98.8%
% growth at 10 µM [48]: 92.2%
% growth at 10 µM [49]: 101%
% growth of cells at 10 µM [50]: 114%
activity at 10 µM [51]: 105%
% growth at 10 µM [52]: 91.2%
activity at 10 µM [53]: 101%
% growth at 10 µM [54]: 107%
% growth at 10 µM [55]: 103%
% growth at 10 µM [56]: 129%
% growth at 10 µM [57]: 108%
% growth at 10 µM [58]: 107%
activity at 10 µM [59]: 105%

N=C(NN=Cc1ccc(Cl)cc1Cl)c1c(N)nc(S)nc1-c1ccc(Cl)cc1Cl [Compound 4r, 4-amino-6–(2,4-dichlorophenyl)-N'-[(2,4-dichlorophenyl)methylene]-2-mercapto pyrimidine-5-carboximidohydrazide]
activity at 10 µM [1]: 102%
percent cell growth at 10 µM [2]: 117%
% growth at 10 µM [3]: 102%
% growth at 10 µM [4]: 100%
activity at 10 µM [5]: 103%
% growth at 10 µM [6]: 108%
% growth at 10 µM [7]: 106%
% cell growth at 10 µM [8]: 113%
% growth at 10 µM [9]: 118%
% cell growth at 10 µM [10]: 92.5%
% growth at 10 µM [11]: 101%
% growth at 10 µM [12]: 113%
activity at 10 µM [13]: 94.6%
activity at 10 µM ([14]; 48 h): 104%
activity on all 60 cancer cell lines tested (in words) [14]: weak activity
Mean % growth ([14]; one dose 10^-5 M, 48 h, mean over all cell lines): 103.80%
activity at 10 µM [15]: 100%
activity at 10 µM [16]: 105%
% growth at 10 µM [17]: 102%
cell growth percent at 10 µM [18]: 111%
% cell growth at 10 µM [19]: 114%
percent cell growth at 10 µM [20]: 106%
% growth at 10 µM [21]: 111%
% growth at 10 µM [22]: 104%
activity at 10 µM [23]: 104%
percent cell growth at 10 µM [24]: 111%
% cell growth at 10 µM [25]: 98.5%
% cell growth at 10 µM [26]: 112%
% growth at 10 µM [27]: 78%
activity at 10 µM [28]: 98.9%
activity at 10 µM [29]: 113%
% growth at 10 µM [30]: 102%
percent cell growth at 10 µM [31]: 92.6%
% growth at 10 µM [32]: 100%
activity at 10 µM [33]: 104%
percent cell growth at 10 µM [34]: 98.1%
% growth at 10 µM [35]: 87.5%
% cell growth at 10 µM [36]: 91.6%
activity at 10 µM [37]: 107%
% growth at 10 µM [38]: 109%
% growth at 10 µM [39]: 100%
% growth at 10 µM [40]: 105%
activity at 10 µM [41]: 113%
% growth at 10 µM [42]: 96.4%
activity at 10 µM [43]: 111%
% cell growth at 10 µM [44]: 94.9%
% growth at 10 µM [45]: 108%
% growth at 10 µM [46]: 101%
% growth at 10 µM [47]: 102%
% growth at 10 µM [48]: 100%
% growth at 10 µM [49]: 97.4%
% growth of cells at 10 µM [50]: 110%
activity at 10 µM [51]: 102%
% growth at 10 µM [52]: 86.5%
activity at 10 µM [53]: 119%
% growth at 10 µM [54]: 106%
% growth at 10 µM [55]: 105%
% growth at 10 µM [56]: 117%
% growth at 10 µM [57]: 107%
% growth at 10 µM [58]: 105%
activity at 10 µM [59]: 101%
